This is an account of results in patent US20210255193A1, “LYSINE REACTIVE PROBES AND USES THEREOF” (The Scripps Research Institute, priority 2017, published 2021).

Test in all cases: competitive isoTOP-ABPP
Assay type in all cases: binding

Assay [1] has as its target T1, GSTT2B Glutathione S-transferase theta-2B (Homo sapiens, UniProt P0CG30).
T1 construct: isoTOP-ABPP experiments performed in cell lysates (in vitro); endogenous in cells; host or cells: MDA-MB-231 soluble lysate
T1 sequence (P0CG30 1-244): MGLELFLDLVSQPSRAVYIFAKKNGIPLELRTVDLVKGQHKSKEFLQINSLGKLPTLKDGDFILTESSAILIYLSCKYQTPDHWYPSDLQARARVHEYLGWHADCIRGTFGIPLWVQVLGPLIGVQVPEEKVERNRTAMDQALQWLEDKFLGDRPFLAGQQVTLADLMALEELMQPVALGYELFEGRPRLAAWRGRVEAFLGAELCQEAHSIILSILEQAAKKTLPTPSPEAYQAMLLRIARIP
As to conditions: for isoTOP-ABPP ratio (R) at liganded lysine P0CG30_K53: 50 uM, in vitro, sol, 231. An outline of the steps:
(§1)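 Probe: STP-alkyne, 0.1 mM, 1 h RT, after fragment pretreatment of lysate (esters 50 μM; guanidinylators 100 μM). Tags: light = compound, heavy = DMSO, via CuAAC. Replicates averaged if SD <60% of mean; otherwise lowest ratio used when any R <4.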

For assay [2], the target named is T2, HNRNPK Heterogeneous nuclear ribonucleoprotein K (Homo sapiens, UniProt P61978).
T2 construct: isoTOP-ABPP experiments performed in cell lysates (in vitro); endogenous in cells; host or cells: soluble proteome of human cancer cell lines (MDA-MB-231, Ramos, Jurkat)
As to conditions: for isoTOP-ABPP ratio (R) at liganded lysine P61978_K405: 50 uM, in vitro, sol, 231. Put shortly: as §1

Assay [3] addresses T3, PNPO Pyridoxine-5-phosphate oxidase (Homo sapiens, UniProt Q9NVS9).
T3 construct: endogenous in cells; host or cells: MDA-MB-231 (soluble fraction of lysate)
T3 sequence (Q9NVS9 1-261): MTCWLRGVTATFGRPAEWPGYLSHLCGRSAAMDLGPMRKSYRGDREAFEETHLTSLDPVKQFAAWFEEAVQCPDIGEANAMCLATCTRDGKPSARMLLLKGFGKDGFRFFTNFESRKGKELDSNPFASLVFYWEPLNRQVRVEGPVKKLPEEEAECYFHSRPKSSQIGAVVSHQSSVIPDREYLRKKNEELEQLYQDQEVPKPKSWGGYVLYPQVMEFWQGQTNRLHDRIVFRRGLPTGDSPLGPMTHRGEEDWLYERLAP
As to conditions: for isoTOP-ABPP ratio (R) at liganded lysine Q9NVS9_K100: 50 uM, in vitro, sol, 231. Put shortly:
as §1

Consider `O=C(Oc1ccc([N+](=O)[O-])cc1[N+](=O)[O-])c1ccccc1Nc1cccc(C(F)(F)F)c1` [fragment 40, 2,4-Dinitrophenyl 2-((3-(trifluoromethyl)phenyl)amino)benzoate], for which the “isoTOP-ABPP ratio (R) at liganded lysine P0CG30_K53” value in assay [1] was found to be 0.6. Besides, the “isoTOP-ABPP ratio (R) at liganded lysine P61978_K405” value in assay [2] was 0.9. The “isoTOP-ABPP ratio (R) at liganded lysine Q9NVS9_K100” value in assay [3] worked out at 0.9.
For the molecule `CC(C)(C)OC(=O)NCCCC(=O)Oc1ccc([N+](=O)[O-])cc1[N+](=O)[O-]` [fragment 41, 2,4-Dinitrophenyl 4-((tert-butoxycarbonyl)amino)butanoate], the “isoTOP-ABPP ratio (R) at liganded lysine P0CG30_K53” value in assay [1] amounted to 0.5. Besides, the “isoTOP-ABPP ratio (R) at liganded lysine P61978_K405” value in assay [2] worked out at 1.0. The “isoTOP-ABPP ratio (R) at liganded lysine Q9NVS9_K100” value in assay [3] was 1.0.
Consider `CC(=O)Oc1ccc([N+](=O)[O-])cc1[N+](=O)[O-]` [fragment 43, 2,4-Dinitrophenyl acetate], for which, in assay [1], the “isoTOP-ABPP ratio (R) at liganded lysine P0CG30_K53” value came to 0.6. The “isoTOP-ABPP ratio (R) at liganded lysine P61978_K405” value in assay [2] is 1.3. In addition, in assay [3], the “isoTOP-ABPP ratio (R) at liganded lysine Q9NVS9_K100” value was determined as 1.0.
For the molecule `N#Cc1ccc(C(=O)Oc2ccc([N+](=O)[O-])cc2[N+](=O)[O-])cc1` [fragment 44, 2,4-Dinitrophenyl 4-cyanobenzoate], the “isoTOP-ABPP ratio, lysine P0CG30_K53” value in assay [1] (50 uM_231_sol_in vitro) worked out at 0.6. In assay [2] (50 uM_231_sol_in vitro), the “isoTOP-ABPP ratio, lysine P61978_K405” value is listed as 1.0. Also, the “isoTOP-ABPP ratio, lysine Q9NVS9_K100” value in assay [3] (50 uM_231_sol_in vitro) is listed as 0.9.
For `O=C(CCc1ccc2c(c1)OCO2)Oc1ccc([N+](=O)[O-])cc1[N+](=O)[O-]` [fragment 45, 2,4-Dinitrophenyl 3-(benzo[d][1,3]dioxol-5-yl)propanoate] the same measures were 0.5, 1.1 and 1.0.
For `O=C(ON1C(=O)CCC1=O)c1cc(C(F)(F)F)cc(C(F)(F)F)c1` [fragment 46, 3,5-Bis(trifluoromethyl)benzoic acid NHS ester] the same measures were 1.8, 1.1 and 1.0.
For `COC(=O)NC(=NC(=O)OCC1c2ccccc2-c2ccccc21)n1cccn1` [fragment 49, N-Methoxycarbonyl-N′-9-fluorenylmethoxycarbonyl-pyrazole-1-carboxamidine], the “isoTOP-ABPP ratio, lysine P0CG30_K53” value in assay [1] (100 uM_231_sol_in vitro) is reported as 3.1. Besides, in assay [2] (100 uM_231_sol_in vitro), the “isoTOP-ABPP ratio, lysine P61978_K405” value was 1.9. Moreover, the “isoTOP-ABPP ratio, lysine Q9NVS9_K100” value in assay [3] (100 uM_231_sol_in vitro) turned out to be 3.3.
Take `CC(C)(C)OC(=O)N=C(NC(=O)OC(C)(C)C)n1cccn1` [fragment 50, reference compound]: the “isoTOP-ABPP ratio, lysine P0CG30_K53” value in assay [1] (100 uM_231_sol_in vitro) is on record as 1.4. In assay [2] (100 uM_231_sol_in vitro), the “isoTOP-ABPP ratio, lysine P61978_K405” value is on record as 1.3. The “isoTOP-ABPP ratio, lysine Q9NVS9_K100” value in assay [3] (100 uM_231_sol_in vitro) was determined as 1.1.
For the molecule `NC(=O)c1cc(C(F)(F)F)cc(C(F)(F)F)c1` [fragment 51, reference compound], in assay [1] (50 uM_231_sol_in vitro), the “isoTOP-ABPP ratio, lysine P0CG30_K53” value was determined as 0.7. Moreover, the “isoTOP-ABPP ratio, lysine P61978_K405” value in assay [2] (50 uM_231_sol_in vitro) amounted to 1.2. The “isoTOP-ABPP ratio, lysine Q9NVS9_K100” value in assay [3] (50 uM_231_sol_in vitro) amounted to 0.9.
